Several values for one entry are separate records, joined by “and”; a condition that tells them apart may be missing. Equal entries are not always repeated. Where two headings read alike, the source gives them in different places.
Key:
[1] = system: adult B. malayi female worms; assay: Adult female B. malayi incubation with UGT inhibitor in combination with albendazole, worm motility; type: cell-based, Brugia malayi; conditions: 8 days
Protocol: (§1) Worm motility: Worms were visualized with a dissecting microscope by an observer blinded to treatment category. Motility of the adult female B. malayi worms was rated based on the following scale: 4=active movement, 3=modest reduction in movement, 2=severe reduction in movement, 1=twitching, and 0=no movement.
For the probenecid samples, adult female worms were incubated in culture media with the drug for 8 days at concentration of 100 μM alone or in combination with 10 μM of albendazole. Worms were transferred into new media with corresponding drug concentrations every other day. As a negative control, worms were incubated in culture media alone. Worm motility was scored using a previously established scale as described in Example 3 for the course of the experiment.

[2] = system: adult B. malayi female worms; assay: Adult B. malayi worm incubation with UGT inhibitors, worm motility score (macrofilaricidal activity in vitro); type: cell-based, Brugia malayi; conditions: for Lowest effective concentration (lowest concentration with significant effect on motility): adult worms in vitro
Protocol: For the siRNA experiments, data was analyzed using one-way analysis of variance (ANOVA) or T-test by PRISM 7.0 (GraphPad Software, La Jolla, Calif., US). Following ANOVA, individual comparisons of mean values were performed using Tukey's multiple comparisons test. For the UGT inhibitor experiments, area under curve (AUC) analysis was performed followed by one-way ANOVA to determine significance. Statistical significance between the experimental and control groups was designated as follows: * for p values<0.05, ** for p values<0.01, and *** for p values<0.001.
as §1
For probenecid, adult female worms were incubated in culture media with the drug for 7 days at concentrations of 5000 μM, 500 μM, 250 μM, and 100 μM. Worms were transferred into new media with corresponding drug concentrations every other day. As a negative control, worms were incubated in culture media alone. Worm motility was scored using the previously mentioned scale described in Example 3 for the course of the experiment.

[3] = cited from earlier work
B. malayi microfilariae = B. malayi microfilariae incubation with UGT inhibitors (microfilaricidal activity in vitro); type: cell-based, Brugia malayi; conditions: 500 μM
Protocol: B. malayi microfilariae incubation with UGT inhibitors: The above UGT inhibitors were evaluated for microfilaricidal activity in vitro. For each drug, experiments were performed in triplicate at a concentration of 2×10^4 Mf/mL in culture media. Viability was determined by quantifying the number of motile larvae from 100 randomly selected microfilariae per well. […] As a negative control, larvae were incubated in culture media alone. The UGT inhibitor experiments were repeated two times under similar conditions.

[4] = UGT inhibitor LDH cytotoxicity assay; type: cell-based; conditions: human
Protocol: UGT Inhibitor Cytotoxicity Assay: Cytotoxicity of the UGT inhibitors was measured using a Pierce LDH Cytotoxicity Assay Kit (Thermo Fisher Scientific, Carlsbad, Calif., US). HEK cells were seeded at 5×10^4 per well in DMEM (Quality Biological, Gaithersburg, Md., US) with 10% Hyclone Cosmic Calf Serum (Thermo Fisher Scientific, Carlsbad, Calif., US), 200 μM of L-glutamine (Quality Biological, Gaithersburg, Md., US), and 50 μg/mL of gentamicin (Quality Biological, Gaithersburg, Md., US) at 37° C. in 5% CO2. The cells were then incubated with various concentrations of the UGT inhibitors overnight. Following this, 50 μL of media was transferred from each well to a new 96-well plate and then added 50 μL of reaction buffer. The mixture was incubated for 30 minutes and then added 50 μL of stop solution. Absorbance was measured at 490 nm and 680 nm. The following controls were included in the experiment: a spontaneous lactate dehydrogenase (LDH) activity control that was incubated with the vehicle only and a maximum LDH activity control that was incubated with nothing but later lysed prior to incubation with the reaction buffer. Absorbance was calculated for each well by subtracting the 680 nm absorbance value (background) from the 490 nm absorbance value. Percent cytotoxicity was calculated using the following equation (Formula 1): [formula]

Row | SMILES | Adult worm motility, area under the curve (AUC) ([1]; 10 μM albendazole alone) | Macrofilaricidal activity compared to media alone ([1]; 10 μM alone) | Macrofilaricidal activity in vitro ([2]; 500 μM) | Adult worm motility, area under the curve (AUC) ([2]; 5000 μM, 7 days, media control AUC 24.18) | Macrofilaricidal activity in vitro ([2]; adult worms) | Lowest effective concentration (lowest concentration with significant effect on motility) [2] [µM] | Adverse events in humans ([3]; single 2 g oral dose) | Peak concentration in humans ([3]; single 2 g oral dose) | Microfilaricidal effect (B. malayi microfilariae) | cytotoxicity at 100 µM [4] [%] | cytotoxicity at 250 µM [4] [%] | cytotoxicity at 500 µM [4] [%] | cytotoxicity at 5000 µM [4] [%] | Cmax ([3]; 400 mg dose, read-out: Maximum concentration (Cmax) in humans) [µM] | cytotoxicity at 40 µM ([4]; HEK cells, 40 μM, overnight, LDH) [%] | cytotoxicity at 100 µM ([4]; HEK cells, 100 μM, overnight, LDH, read-out: % Cytotoxicity) [%] | cytotoxicity at 200 µM ([4]; HEK cells, 200 μM, overnight, LDH) [%] | cytotoxicity at 2000 µM ([4]; HEK cells, 2000 μM, overnight, LDH) [%]
1 | CCCSc1ccc2nc(NC(=O)OC)[nH]c2c1 [albendazole] | 29.63 | Limited macrofilaricidal activity | – | – | – | – | – | – | – | – | – | – | – | – | – | – | – | –
2 | CCCN(CCC)S(=O)(=O)c1ccc(C(=O)O)cc1 [probenecid, p-(di-n-propylsulphamyl)-benzoic acid] | – | – | robust macrofilaricidal activity | 8.1 | exhibited macrofilaricidal activity in vitro | 500 | minimal adverse events | 148.6 μg/mL and 520.7 μM | no clear microfilaricidal effect | -2.69 | -0.67 | -1.34 | -2.49 | – | – | – | – | –
3 | O=C1C(CC[S+]([O-])c2ccccc2)C(=O)N(c2ccccc2)N1c1ccccc1 (stereo not shown) [sulfinpyrazone] | – | – | – | – | – | 200 | – | – | – | – | – | – | – | 79.9 | -4.03 | -4.46 | -5.35 | -4.14

— US20210220333A1, “COMPOSITIONS AND METHODS FOR PREVENTING AND/OR TREATING FILARIAL DISEASE” (priority 2018, published 2021)
